Experimental findings from US20120093836A1, “PHARMACEUTICAL COMPOSITIONS FOR TREATING METASTASIS” (UNIVERSIDAD DEL PAIS VASCO, priority 2009, published 2012) are described below.

Assay [1] relates to adhesion of MB16 cells to the HSE (hepatic sinusoidal endothelium). Description: Tumor adhesion assay for C. albicans-induced tumor adhesion (fluorescence, BCECF-AM labelled MB16 cells on HSE). It is filed as cell-based, mouse. Particulars: IL-1β receptor blocked, added 15 minutes before MNF. How it is done: The adhesion was measured using the method based on the fluorescence measurement. The MB16 cells were resuspended in a solution of 2′,7′-bis-(2-carboxyethyl)-5.6-carboxyfluorescein acetoxymethyl ester (BCECF-AM) in DMEM-HEPES (40 μg/ml) and were incubated for 20 minutes at 37° C. The cells were then washed and resuspended in DMEM-HEPES at a concentration of 2×10^5 cells/ml. The autofluorescence of the HSE culture was determined.
Subsequently, the HSE cells were incubated with different strains and extracts of C. albicans (5×10^5 cells/well), MNF (2 μg carbohydrate/ml), EC (2 μg carbohydrate/ml), PF (2 μg protein/ml) or commercial mannan from Saccharomyces cerevisiae (100 μg/ml) for 8 hours. The non-treated HSE cells received basal medium as control. […]
Once the time of adhesion ended, the co-cultures were excited with light of wavelength 488 nm and the fluorescence emitted at 530 nm by the BCEF incorporated to the tumor cells in the scanning fluorometer in plate was recorded. […] Subsequently, 1 ml of the same adhesion medium was added in each well and the fluorescence emitted was read. Thus a relative value (in arbitrary units of fluorescence intensity) could be determined with respect to the number of tumor cells added. […]

The subject of assay [2] is TNF-α. Put plainly: Production of TNF-α by the HSE (ELISA of supernatants). Particulars: IL-1β receptor blocked. It is filed as cell-based, mouse. How it is done: The concentration of TNF-α and IL-18 in the supernatants was determined using a monoclonal antibody-based commercial ELISA kit (R&D Systems) following the manufacturer's instructions. The tumor adhesion assays of C. albicans-induced tumor adhesion and B16 melanoma tumor cell proliferation assays in response to C. albicans (both described above) were performed in collaboration with the company, Pharmakine S.L.
The stimulation of the endothelium causes a cascade of cytokine which ends with the expression of adhesion molecules such as the VCAM-1 (Mendoza (cited at supra) 1998, Vidal-Vanaclocha et al. 2000. PNAS, 97: 734-739) wherein the tumor cells are adhered. To know whether the process triggered by the MNF which as a consequence caused the increase of the adhesion of MB16 cells to the HSE was also mediated by cytokines, the concentration of TNF-α, the cytokine which is described as one of the first and most important cytokines acting in the proinflammatory cascade described in the HSE was measured.
Background: ELISA stands for enzyme-linked immunosorbent assay.

Regarding “IL-Ra: IL-1β receptor antagonist molecule (Amgen Biologicals)”, in assay [1], the “effect on the increase of the tumor adhesion to the HSE induced by the MNF (in words)” value was “completely inhibits”. Moreover, in assay [2], the “effect on the release of TNF-α by the endothelium stimulated by the mannoproteins of C. albicans (in words)” value was “partially reduces”.
